Three compounds from patent US9840627B2, “Application of camptothecin and derivatives thereof as antifouling agent” (priority 2013, dated 2017) can be followed below.

Read-outs that look alike come from different tables or passages of the source.

Type in all cases: in vivo
For experiment [1], the system named is marine large fouling organisms. The note with it: for coverage ratio of fouling organisms (%, Mean ± SE): antifouling agent 20% by weight in paint, panels in sea area, Xiamen. On the procedure: The panel test in natural sea area was carried out referring to the national standard GB/T5370-2007 “Method for testing antifouling panels in shallow submergence”. […] The tested panels were fixed in iron frames after the paints had dried, and they were hanged on the test buoyant rafts in the sea area near Dalipu Island in Xiamen in June, 2010. After the tested panels had been immersed in seawater up to 3, 6, 9 and 12 months, they were then photographed, and the coverage ratios of the fouling organisms in each coated sample areas were analyzed and counted. Herein, the coverage ratio of the fouling organisms is the ratio of surface area covered by marine large fouling organisms in the sample area divided by the whole surface area in the sample area (the same below), and the lower the value is, the higher the antifouling efficiency will be.

In experiment [2] the test system is cypris larvas of Balanus albicostatus. Nature of the experiment: Inhibitory effect on the attachment of barnacles (cypris larvas). The note with it: 48 h, membrane filtrated seawater. The text has this: Barnacles are sessile Cirripedia with calcareous shells and widespread. They firmly attach to the surfaces of vessels and various offshore artificial facilities, and are one of the major marine fouling organisms as well as one of the major target organisms in the study of antifouling technology. Adults of Balanus albicostatus were collected from the rocks and piers at Baicheng Coast in Xiamen, and their cypris larvas were obtained by culturing in laboratory. It is the attachment of the cypris larvas that causes the barnacles to change from swimming life to attaching life. Thus, inhibition of the attachment of the cypris larvas can verify the antifouling activity of the compounds. CPT and 10-hydroxyl-CPT were dissolved in ethyl acetate respectively, and a series of concentration gradient were set according to the results of pre-experiment. 1 ml of each solution was taken to a petri dish respectively, 1 ml of ethyl acetate was taken to another blank petri dish serving as control group. After the solvents evaporated completely and the compounds were distributed evenly on the bottom surfaces and the side surfaces of the petri dishes, each petri dish was added with 10 ml of membrane filtrated seawater (filtrated by membrane with pore size of 0.22 μm, the same below). […]

Experiment [3] concerns larvas of Bugula neritina. Nature of the experiment: Inhibitory effect on the attachment of Bugula larvas. The note with it: 48 h, membrane filtrated seawater. The text has this: Bugulas are marine bryozoan and widespread in various sea areas in the world. They often attach to the surfaces of marine artificial facilities like mariculture netting, cages, vessels, buoys, etc., and they are important marine fouling organisms as well. Bugula neritina, also called multicellular Bugula, its adults were collected from the fish culture net bins in Western sea area of Xiamen and put into an aquarium filled with fresh seawater after back to the laboratory to induce the release of their swimming larvas. It is the attachment of their swimming larvas that causes the Bugulas to change from swimming life to attaching life. Thus, inhibition of the attachment of the swimming larvas can verify the antifouling activity of the compounds. CPT and 10-hydroxyl-CPT were dissolved in ethyl acetate respectively, and a series of concentration gradient were set according to the results of pre-experiment. 1 ml of each solution was taken to a petri dish respectively; 1 ml of ethyl acetate was taken to another blank petri dish serving as control group. After the solvents evaporated completely and the compounds were distributed evenly on the bottom surfaces and the side surfaces of the petri dishes, each petri dish was added with 10 ml of membrane filtrated seawater. […]

The subject of another experiment is Perna viridis. Nature of the experiment: Inhibitory effect on the attachment of mussels by produced byssal threads. To be noted: 24 h culture at room temperature. The source says: Mussels are common bivalve in marine fouling biocenoses, widespread, and are one of the major target organisms in the study of marine antifouling technology. Mussels explore surfaces by their feet, looking for attachment substrate. If proper surfaces for attaching were found, mussels would produce byssal threads to attach to them. […] Perna viridis were collected from the fish net bins in offshore sea area of Zhangzhou, and in which those with shell length of 1.4˜2.4 cm were selected and washed with seawater, followed by gent cut-off of the byssal threads. And then the Perna viridis were washed with membrane filtrated seawater. CPT were first dissolved in a trace of dimethyl sulfoxide, and then mixed with membrane filtrated seawater to prepare a series of concentration gradient. 4 ml of each solution was taken into a 12-well plate, and each well was added with one Perna viridis. 4 ml of membrane filtrated seawater containing a trace of dimethyl sulfoxide and one Perna viridis were added into the control group. Each experimental group and control group had 8 paralleled groups. After 24-hours culture at room temperature, the amount of byssal threads produced by Perna viridis were observed, and the half inhibition concentration of CPT for the attachment of Perna viridis by produced byssal threads, EC50, were determined.

On to `[Cu].[O]=[Cu]` [Cu2O, cuprous oxide, reference compound], for which the “coverage ratio of fouling organisms (%, Mean ± SE)” value was found to be 7.23 ± 2.02% in experiment [1] (after 3 months), 91.75 ± 2.90% in experiment [1] (after 6 months), 70.91 ± 13.40% in experiment [1] (after 9 months) and 98.88 ± 0.48% in experiment [1] (after 12 months).
As for `CC[C@@]1(O)C(=O)OCc2c1cc1n(c2=O)Cc2cc3cc(O)ccc3nc2-1` [10-hydroxyl-CPT], the “half inhibition concentration (EC50) for the attachment of cypris larvas of Balanus albicostatus” value in experiment [2] is 1.78 µg/mL. Besides, the “EC50 for the attachment of larvas of Bugula neritina” value in experiment [3] worked out at 5.93 µg/mL.
Consider `CC[C@@]1(O)C(=O)OCc2c1cc1n(c2=O)Cc2cc3ccccc3nc2-1` [CPT, Camptothecin (CPT)], for which the “half inhibition concentration (EC50) for the attachment of cypris larvas of Balanus albicostatus” value in experiment [2] is 1.73 µg/mL. In addition, the “EC50 for the attachment of larvas of Bugula neritina” value in experiment [3] is 15.02 µg/mL. Further, in the experiment with Perna viridis, the “EC50 for the attachment of Perna viridis by produced byssal threads” value was determined as 10.78 µg/mL. The “coverage ratio of fouling organisms (%, Mean ± SE)” value in experiment [1] (after 3 months) was 0.15 ± 0.12%; in experiment [1] (after 6 months), 11.6 ± 6.68%; in experiment [1] (after 9 months), 9.03 ± 2.64%; in experiment [1] (after 12 months), 39.67 ± 10.43%. Further, the antifouling term result in experiment [1] (paints prepared with CPT as antifouling agent, panel test in sea area) was “up to 12 months”.
